For 19 molecules, IC50 results are on record in patent US10898481B2 (priority 2018, dated 2021).

For one test, the target named is mA2a/CHO (Mus musculus (Mouse), UniProt Q60613). Kind of test: cAMP inhibition assay in mA2a/CHO cells, 10 μM adenosine.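 Also: compounds preincubated 30 min at 37 °C before the adenosine challenge, then 30 min further stimulation, readout after 60 min detection reagent incubation at room temperature in 384-well plates.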 The format is cell-based. The settings on record: read-out: cAMP & FLIPR IC50 (nM) mA2a.
A further test concerns the target hA2b/CHO (Homo sapiens (Human), UniProt P29275). Kind of test: cAMP inhibition assay in hA2b/CHO cells, 10 μM adenosine.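 Also: cells exposed to compound 30 min at 37 °C, then stimulated with adenosine a further 30 min, cAMP read after 60 min at room temperature.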 The format is cell-based. Conditions: read-out: cAMP & FLIPR IC50 (nM) hA2b.
Another test has as its target hA2a/CHO (Homo sapiens (Human), UniProt P29274). The test is described as follows: cAMP inhibition assay in hA2a/CHO cells, 10 μM adenosine.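 Also: compounds added to cells 30 min ahead of adenosine, then a further 30 min at 37 °C with adenosine before cAMP detection.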 Format: cell-based. The settings on record: read-out: cAMP & FLIPR IC50 (nM) hA2a.
The target in test [1] is hADORA1/CHO (hA1 expressing) cells (Homo sapiens (Human), UniProt P30542). The test is described as follows: cell-based. The settings on record: FLIPR inhibition, 10 μM adenosine, read-out: cAMP & FLIPR IC50 (nM) hA1.
Sequence of hADORA1/CHO (hA1 expressing) cells (P30542 whole entry): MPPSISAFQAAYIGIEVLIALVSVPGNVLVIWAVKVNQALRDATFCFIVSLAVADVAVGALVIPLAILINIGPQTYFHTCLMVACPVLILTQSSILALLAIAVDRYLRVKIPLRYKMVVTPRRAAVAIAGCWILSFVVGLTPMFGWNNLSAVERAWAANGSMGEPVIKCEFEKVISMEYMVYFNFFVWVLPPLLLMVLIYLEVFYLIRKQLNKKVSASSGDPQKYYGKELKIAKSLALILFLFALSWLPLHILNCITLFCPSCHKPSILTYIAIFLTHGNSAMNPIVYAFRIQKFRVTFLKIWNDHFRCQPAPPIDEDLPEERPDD

Sequence of mA2a/CHO (Q60613 whole entry): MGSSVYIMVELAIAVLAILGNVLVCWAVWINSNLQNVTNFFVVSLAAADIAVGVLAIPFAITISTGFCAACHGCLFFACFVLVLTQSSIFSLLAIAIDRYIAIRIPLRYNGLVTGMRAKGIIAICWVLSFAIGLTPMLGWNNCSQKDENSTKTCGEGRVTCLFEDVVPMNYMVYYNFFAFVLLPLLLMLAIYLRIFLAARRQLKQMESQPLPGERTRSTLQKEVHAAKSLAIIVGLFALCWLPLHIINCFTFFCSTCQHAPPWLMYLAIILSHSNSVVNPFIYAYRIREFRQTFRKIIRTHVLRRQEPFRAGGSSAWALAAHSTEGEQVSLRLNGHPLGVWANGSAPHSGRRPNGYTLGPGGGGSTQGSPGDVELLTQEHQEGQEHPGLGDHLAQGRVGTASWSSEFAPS
Sequence of hA2b/CHO (P29275 whole entry): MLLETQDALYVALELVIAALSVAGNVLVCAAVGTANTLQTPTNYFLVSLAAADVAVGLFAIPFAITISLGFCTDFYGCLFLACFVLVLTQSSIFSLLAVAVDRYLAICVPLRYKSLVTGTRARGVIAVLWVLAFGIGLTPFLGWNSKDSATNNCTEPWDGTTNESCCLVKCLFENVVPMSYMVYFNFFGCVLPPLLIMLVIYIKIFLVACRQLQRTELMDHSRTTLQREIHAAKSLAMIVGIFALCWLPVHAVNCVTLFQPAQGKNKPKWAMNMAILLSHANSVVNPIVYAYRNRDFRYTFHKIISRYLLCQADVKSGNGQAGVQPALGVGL
Sequence of hA2a/CHO (P29274 whole entry): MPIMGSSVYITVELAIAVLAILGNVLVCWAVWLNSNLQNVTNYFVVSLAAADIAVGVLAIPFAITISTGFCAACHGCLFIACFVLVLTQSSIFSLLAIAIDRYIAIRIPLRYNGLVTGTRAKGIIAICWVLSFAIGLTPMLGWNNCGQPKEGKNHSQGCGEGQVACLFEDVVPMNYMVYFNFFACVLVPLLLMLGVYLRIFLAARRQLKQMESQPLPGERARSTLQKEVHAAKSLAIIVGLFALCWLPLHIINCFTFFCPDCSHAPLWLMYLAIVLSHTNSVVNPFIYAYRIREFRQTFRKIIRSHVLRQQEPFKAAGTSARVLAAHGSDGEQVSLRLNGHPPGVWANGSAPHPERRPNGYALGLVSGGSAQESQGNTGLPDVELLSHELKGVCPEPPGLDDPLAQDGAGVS
Experimental for hA2a/CHO: (§1) hA2a/CHO, hA2b/CHO, hA3/CHO and mA2a/CHO (Genscript) were plated at 5×10^3 cells/well into 384-well polystyrene plates at the day of experiment. Compounds were pre-incubated with cells for 30 min at 37° C., 5% CO2. Then 10 μM adenosine was added to the cells and incubated for 30 min at 37° C., 5% CO2. Detection reagent (CISBIO) was added and the plates were incubated for 60 min at room temperature. The signal was captured by Envision.
Experimental for hA2b/CHO: as §1
Experimental for mA2a/CHO: as §1

In the case of `Cc1cc(-c2nc(C(=O)NCc3c(F)cccc3F)c(N)nc2-c2ccc(C)o2)cc(C)n1` [Example 62, 3-amino-N-(2,6-difluorobenzyl)-6-(2,6-dimethylpyridin-4-yl)-5-(5-methylfuran-2-yl)pyrazine-2-carboxamide], the IC50 at mA2a/CHO is 28 nM; at hA2b/CHO it was at least 10000 nM; on hA2a/CHO it was 1.8 nM.
Taken in the same sequence, the figures for `COc1cccc(F)c1CNC(=O)c1nc(-c2cc(C)nc(C)c2)c(-c2ccc(F)cc2)nc1N` [Example 90, 3-amino-6-(2,6-dimethylpyridin-4-yl)-N-(2-fluoro-6-methoxybenzyl)-5-(4-fluorophenyl)pyrazine-2-carboxamide] were 95 nM, 781 nM and 4 nM.
In the case of `CCn1cc(-c2nc(C(=O)NCc3ccccc3OC)c(N)nc2-c2ccc(F)cc2)ccc1=O` [Example 69, 3-amino-6-(1-ethyl-6-oxo-1,6-dihydro-pyridin-3-yl)-5-(4-fluorophenyl)-N-(2-methoxybenzyl)pyrazine-2-carboxamide], the results for the IC50 on mA2a/CHO, on hA2b/CHO and on hA2a/CHO were 20 nM, 213 nM and 15 nM, respectively.
As for `COc1ccccc1CNC(=O)c1nc(-c2ccc(=O)n(C(C)C)c2)c(-c2ccc(F)cc2)nc1N` [Example 70, 3-amino-5-(4-fluorophenyl)-6-(1-isopropyl-6-oxo-1,6-dihydropyridin-3-yl)-N-(2-methoxybenzyl)pyrazine-2-carboxamide], the IC50 on mA2a/CHO was 5.2 nM; on hA2b/CHO, at least 10000 nM; on hA2a/CHO, 10 nM.
`Cc1cc(-c2nc(C(=O)Nc3ccccc3OC(F)F)c(N)nc2-n2ccc(C)n2)cc(N)n1` [Example 60, 3-amino-6-(2-amino-6-methylpyridin-4-yl)-N-(2-(difluoromethoxy)phenyl)-5-(3-methyl-1H-pyrazol-1-yl)pyrazine-2-carboxamide]: the IC50 at mA2a/CHO is 150 nM; on hA2b/CHO, at least 10000 nM; at hA2a/CHO, 24 nM.
As to `Cc1cc(-c2nc(C(=O)NCc3ccccc3OC(F)(F)F)c(N)nc2-c2ccc(F)cc2)cc(C)n1` [Example 65, 3-amino-6-(2,6-dimethylpyridin-4-yl)-5-(4-fluorophenyl)-N-(2-(trifluoromethoxy)benzyl)pyrazine-2-carboxamide], the IC50 at mA2a/CHO turned out to be 50 nM; on hA2a/CHO, 19 nM.
As for `Cc1cnc2ccc(-c3nc(C(=O)NC[C@@H]4CCCN4C)c(N)nc3-c3ccc(F)cc3)cn12` [Example 139, (S)-3-amino-5-(4-fluorophenyl)-6-(3-methylimidazo[1,2-a]pyridin-6-yl)-N-((1-methylpyrrolidin-2-yl)methyl) pyrazine-2-carboxamide], the IC50 was found to be 66 nM at mA2a/CHO and 932 nM on hA2b/CHO.
Regarding `Cc1cnc2ccc(-c3nc(C(=O)NC[C@H]4CCCN4C)c(N)nc3-c3ccc(F)cc3)cn12` [Example 138, 3-amino-5-(4-fluorophenyl)-6-[3-methylimidazo[1,2-a]pyridin-6-yl]-N-[[(2R)-1-methylpyrrolidin-2-yl]methyl]pyrazine-2-carboxamide], the IC50 was 70 nM at mA2a/CHO and 959 nM on hA2b/CHO.
In the case of `Cc1cnc2ccc(-c3nc(C(=O)NCC4CCCN4C)c(N)nc3-c3ncco3)cn12` (single isomer, unassigned) [Example 121], the results for the IC50 on mA2a/CHO and at hA2b/CHO were 204 nM and 747 nM, respectively.
Taken in the same sequence, the figures for `Cc1cnc2ccc(-c3nc(C(=O)NCC4CCCN4C)c(N)nc3-c3ncco3)cn12` (single isomer, unassigned) [Example 120] were 167 nM and 775 nM.
Take `CNCCOc1cccnc1CNC(=O)c1nc(-c2ccc3ncn(C)c3c2)c(-c2ccc(F)cc2)nc1N` [Example 115, 3-amino-5-(4-fluorophenyl)-6-(1-methyl-1H-1,3-benzodiazol-6-yl)-N-([3-[2-(methylamino)ethoxy]pyridin-2-yl]methyl)pyrazine-2-carboxamide]: the IC50 at mA2a/CHO came to 12 nM; at hA2b/CHO, 596 nM.
For the molecule `Cc1cnc2ccc(-c3nc(C(=O)NC(C)C4CCCO4)c(N)nc3-c3ncco3)cn12` (single isomer, unassigned; isomer 4) [Example 258, 3-amino-6-(3-methylimidazo[1,2-a]pyridin-6-yl)-5-(oxazol-2-yl)-N-(1-(tetrahydrofuran-2-yl)ethyl)pyrazine-2-carboxamide (isomer 4)], the IC50 was determined as 2510 nM in test [1] and 8.1 nM at hA2a/CHO.
As to `Cc1cnc2ccc(-c3nc(C(=O)NCc4cccc(N5CCC(N(C)C)C5)n4)c(N)nc3-c3ncco3)cn12` (single isomer, unassigned) [Cmpd. 235, 3-amino-N-((6-(3-(dimethylamino)pyrrolidin-1-yl)pyridin-2-yl)methyl)-6-(3-methylimidazo[1,2-a]pyridin-6-yl)-5-(oxazol-2-yl)pyrazine-2-carboxamide], the IC50 is 5180 nM in test [1] and 0.8 nM on hA2a/CHO.
Taken in the same sequence, the figures for `Cc1cnc2ccc(-c3nc(C(=O)NC(C)C4CCCO4)c(N)nc3-c3ncco3)cn12` (single isomer, unassigned; isomer 2) [Example 262, 3-amino-6-(3-methylimidazo[1,2-a]pyridin-6-yl)-5-(oxazol-2-yl)-N-(1-(tetrahydrofuran-2-yl)ethyl)pyrazine-2-carboxamide (isomer 2)] were 11600 nM and 12 nM.
On to `Cc1cnc2ccc(-c3nc(C(=O)NCC4CCN(C)C4=O)c(N)nc3-c3ccc(F)cc3)cn12` (single isomer, unassigned; isomer 1) [Example 267, 3-amino-5-(4-fluorophenyl)-N-((1-methyl-2-oxopyrrolidin-3-yl)methyl)-6-(3-methylimidazo[1,2-a]pyridin-6-yl) pyrazine-2-carboxamide (isomer 1)], for which the IC50 in test [1] came out at 2.8 nM; at hA2a/CHO it was 0.9 nM.
Consider `Cc1cnc2ccc(-c3nc(C(=O)NCc4cccc(N5CCOCC5)n4)c(N)nc3-c3ncco3)cn12` [Example 276, 3-amino-6-[3-methylimidazo[1,2-a]pyridin-6-yl]-N-[[6-(morpholin-4-yl)pyridin-2-yl]methyl]-5-(1,3-oxazol-2-yl)pyrazine-2-carboxamide], for which the IC50 in test [1] amounted to 3070 nM; on hA2a/CHO, 3.1 nM.
In the same order, the values of `Cc1cnc2ccc(-c3nc(C(=O)NCCN(C)C4CCOC4)c(N)nc3-c3ncco3)cn12` (racemic) [Cmpd. 233, rac-3-amino-N-(2-(methyl(tetrahydrofuran-3-yl)amino)ethyl)-6-(3-methylimidazo[1,2-a]pyridin-6-yl)-5-(oxazol-2-yl)pyrazine-2-carboxamide] are 1910 nM and 38 nM.
For the molecule `Cc1cnc2ccc(-c3nc(CNC(=O)[C@@H]4CCCO4)c(N)nc3-c3ccc(F)cc3)cn12` [Example 265, (S)-N-((3-amino-5-(4-fluorophenyl)-6-(3-methylimidazo[1,2-a]pyridin-6-yl)pyrazin-2-yl)methyl)tetrahydrofuran-2-carboxamide], the results for the IC50 (in test [1]; at hA2a/CHO) were 26 nM and 7.3 nM, respectively.
For the molecule `Cc1cnc2ccc(-c3nc(CNC(=O)[C@@H]4CCOC4)c(N)nc3-c3ccc(F)cc3)cn12` [Example 275, (R)-N-((3-amino-5-(4-fluorophenyl)-6-(3-methylimidazo[1,2-a]pyridin-6-yl)pyrazin-2-yl)methyl)tetrahydrofuran-3-carboxamide], the results for the IC50 (in test [1]; at hA2a/CHO) were 39 nM and 6.1 nM, respectively.
